Measured values from ChEMBL document CHEMBL1150313, “Novel bis-(arylsulfonamide) hydroxamate-based selective MMP inhibitors” (Bioorg Med Chem Lett, 2008).
pKi: −log10 of the molar value. Active and inactive are the calls of the source. No cut-off for these calls is given here.

Tests used:
[1] = molecular target: T1, Matrix metalloproteinase-9 (Homo sapiens, UniProt P14780); assay: Inhibition of human recombinant MMP9
Matrilysin = molecular target: T2, Matrilysin (Homo sapiens, UniProt P09237); assay: (§1) Inhibition of human recombinant MMP7
T2 sequence (P09237 whole entry): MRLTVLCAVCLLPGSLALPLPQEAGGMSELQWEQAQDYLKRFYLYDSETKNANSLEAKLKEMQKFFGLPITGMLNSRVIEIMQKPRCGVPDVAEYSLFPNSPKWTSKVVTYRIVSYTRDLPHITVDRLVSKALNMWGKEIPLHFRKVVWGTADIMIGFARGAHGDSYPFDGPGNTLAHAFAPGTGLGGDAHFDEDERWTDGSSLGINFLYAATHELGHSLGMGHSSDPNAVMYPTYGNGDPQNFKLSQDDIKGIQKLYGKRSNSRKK

Stromelysin-2 [2] = molecular target: T3, Stromelysin-2 (Homo sapiens, UniProt P09238); assay: Inhibition of human recombinant MMP10
Stromelysin-2 [3] = molecular target: T3, Stromelysin-2; assay: Inhibition of human recombinant MMP10 at 10 uM
Target sequence in this assay (P09238 99-476 limits assumed): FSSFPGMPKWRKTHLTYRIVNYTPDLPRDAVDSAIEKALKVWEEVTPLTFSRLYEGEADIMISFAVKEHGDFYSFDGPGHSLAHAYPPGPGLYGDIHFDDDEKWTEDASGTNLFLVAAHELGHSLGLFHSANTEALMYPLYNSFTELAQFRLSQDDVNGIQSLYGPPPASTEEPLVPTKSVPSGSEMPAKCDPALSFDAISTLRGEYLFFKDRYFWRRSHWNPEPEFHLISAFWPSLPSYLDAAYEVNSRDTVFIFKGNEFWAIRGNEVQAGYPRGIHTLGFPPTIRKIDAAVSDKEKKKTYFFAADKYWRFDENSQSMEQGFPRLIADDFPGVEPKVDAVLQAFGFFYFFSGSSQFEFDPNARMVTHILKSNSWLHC

[4] = molecular target: T4, Matrilysin (Homo sapiens) (UniProt P09237); assay: Inhibition of human recombinant MMP7 at 10 uM
T4 sequence (whole entry): T2 sequence (P09237 whole entry)

[5] = molecular target: T1, Matrix metalloproteinase-9; assay: Inhibition of human recombinant MMP9 at 10 uM
[6] = molecular target: T4, Matrilysin (Homo sapiens); assay: as §1

T1 sequence (P14780 whole entry): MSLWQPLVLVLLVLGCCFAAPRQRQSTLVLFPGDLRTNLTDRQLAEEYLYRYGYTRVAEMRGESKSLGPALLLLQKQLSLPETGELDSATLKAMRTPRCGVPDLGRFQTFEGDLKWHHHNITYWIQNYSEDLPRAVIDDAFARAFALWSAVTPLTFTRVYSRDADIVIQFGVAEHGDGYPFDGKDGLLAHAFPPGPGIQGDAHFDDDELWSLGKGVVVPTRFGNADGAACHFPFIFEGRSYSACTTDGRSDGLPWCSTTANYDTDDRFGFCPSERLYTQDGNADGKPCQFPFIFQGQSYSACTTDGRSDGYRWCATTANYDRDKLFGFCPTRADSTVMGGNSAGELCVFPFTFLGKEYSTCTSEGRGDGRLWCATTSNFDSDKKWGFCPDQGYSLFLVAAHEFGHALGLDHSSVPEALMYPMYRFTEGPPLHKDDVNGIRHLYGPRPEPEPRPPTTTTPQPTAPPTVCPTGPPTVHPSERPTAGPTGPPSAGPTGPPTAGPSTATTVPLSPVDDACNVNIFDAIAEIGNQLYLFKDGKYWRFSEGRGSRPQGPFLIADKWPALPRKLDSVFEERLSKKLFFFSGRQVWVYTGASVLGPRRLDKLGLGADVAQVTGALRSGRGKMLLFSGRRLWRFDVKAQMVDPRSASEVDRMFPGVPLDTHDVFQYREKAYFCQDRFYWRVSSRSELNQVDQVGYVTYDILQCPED

Row | Compound | Activity [1] | pKi (Matrilysin) | pKi [1] | inhibition (Stromelysin-2 [3]) [%] | pKi (Stromelysin-2 [2]) | also measured
1 | O=C(NO)[C@H](CCCNS(=O)(=O)c1ccccc1)NS(=O)(=O)c1ccccc1 | inactive | 5.52 |  |  |  | Activity (Stromelysin-2 [2]): inactive
2 | O=C(NO)C(CNS(=O)(=O)c1ccccc1C(F)(F)F)NS(=O)(=O)c1ccccc1C(F)(F)F (configuration not stated) | inactive | 5.22 |  |  |  | Activity (Stromelysin-2 [2]): inactive
3 | O=C(NO)C(CNS(=O)(=O)c1c(F)c(F)c(F)c(F)c1F)NS(=O)(=O)c1c(F)c(F)c(F)c(F)c1F (configuration not stated) |  | 5.07 | 3.67 |  |  | Activity (Stromelysin-2 [2]): inactive
4 | O=C(NO)[C@H](CCCCNS(=O)(=O)c1ccc(F)cc1)NS(=O)(=O)c1ccc(F)cc1 | inactive | 5.51 |  | 27.4 |  | 
5 | O=C(NO)[C@H](CCCNS(=O)(=O)c1ccc(C(F)(F)F)cc1)NS(=O)(=O)c1ccc(C(F)(F)F)cc1 |  | 5.15 | 3.48 |  | 3.47 | 
6 | O=C(NO)C(CNS(=O)(=O)c1ccc(F)cc1)NS(=O)(=O)c1ccc(F)cc1 (configuration not stated) |  | 6.20 | 5.56 |  | 5.34 | 
7 | O=C(NO)C(CNS(=O)(=O)c1ccc(C(F)(F)F)cc1)NS(=O)(=O)c1ccc(C(F)(F)F)cc1 (configuration not stated) |  | 5.00 | 5.10 |  | 4.64 | 
8 | O=C(NO)[C@H](CCCCNS(=O)(=O)c1ccccc1)NS(=O)(=O)c1ccccc1 |  |  |  | 34.5 |  | inhibition [4]: 44%; inhibition [5]: 7.5%
9 | COc1ccc(S(=O)(=O)NCC(NS(=O)(=O)c2ccc(OC)cc2)C(=O)NO)cc1 (configuration not stated) |  | 6.22 | 7.41 |  | 6.47 | 
10 | O=C(NO)[C@H](CCCNS(=O)(=O)c1ccc(I)cc1)NS(=O)(=O)c1ccc(I)cc1 |  | 5.30 | 3.66 |  |  | Activity (Stromelysin-2 [2]): inactive
11 | CN(C)c1cccc2c(S(=O)(=O)NCC(NS(=O)(=O)c3cccc4c(N(C)C)cccc34)C(=O)NO)cccc12 (configuration not stated) |  | 5.32 | 3.82 |  |  | 
12 | O=C(NO)C(CNS(=O)(=O)c1ccc(Cl)cc1)NS(=O)(=O)c1ccc(Cl)cc1 (configuration not stated) |  | 6.63 | 6.64 |  |  | 
13 | O=C(NO)C(CNS(=O)(=O)c1ccc([N+](=O)[O-])cc1)NS(=O)(=O)c1ccc([N+](=O)[O-])cc1 (configuration not stated) |  | 5.18 | 5.77 |  | 4.66 | 
14 | COc1ccc(S(=O)(=O)NCCC[C@H](NS(=O)(=O)c2ccc(OC)cc2)C(=O)NO)cc1 |  |  | 5.38 |  |  | Activity [6]: inactive; Activity (Stromelysin-2 [2]): 16 µM
15 | O=C(NO)C(CNS(=O)(=O)c1cccc(C(F)(F)F)c1)NS(=O)(=O)c1cccc(C(F)(F)F)c1 (configuration not stated) | inactive | 6.22 |  |  |  | Activity (Stromelysin-2 [2]): inactive
16 | O=C(NO)C(CNS(=O)(=O)c1ccccc1)NS(=O)(=O)c1ccccc1 (configuration not stated) |  | 5.55 | 6.64 |  | 6.45 | 
17 | O=C(NO)C(CNS(=O)(=O)c1ccc(Br)cc1)NS(=O)(=O)c1ccc(Br)cc1 (configuration not stated) |  | 5.26 | 6.82 |  |  | 
18 | O=C(NO)[C@H](CCCNS(=O)(=O)c1ccc(Cl)cc1)NS(=O)(=O)c1ccc(Cl)cc1 | inactive |  |  | 34.5 |  | inhibition [4]: 31%
19 | O=C(NO)[C@H](CCCNS(=O)(=O)c1ccc(Br)cc1)NS(=O)(=O)c1ccc(Br)cc1 |  |  |  | 16.4 |  | inhibition [4]: 32%; inhibition [5]: 9.3%
20 | O=C(NO)C(CNS(=O)(=O)c1ccc(I)cc1)NS(=O)(=O)c1ccc(I)cc1 (configuration not stated) |  | 5.74 | 8.59 |  | 5.80 | 
21 | O=C(NO)[C@H](CCCCNS(=O)(=O)c1ccc(I)cc1)NS(=O)(=O)c1ccc(I)cc1 | inactive |  |  | 30.9 |  | inhibition [4]: 46%
22 | O=C(NO)[C@H](CCCCNS(=O)(=O)c1ccc(Br)cc1)NS(=O)(=O)c1ccc(Br)cc1 | inactive | 5.66 |  | 34.5 |  | 
23 | O=C(NO)[C@H](CCCCNS(=O)(=O)c1ccc(C(F)(F)F)cc1)NS(=O)(=O)c1ccc(C(F)(F)F)cc1 | inactive |  |  | 1.8 |  | inhibition [4]: 24%
24 | COc1ccc(S(=O)(=O)NCC(NS(=O)(=O)c2ccc(OC)cc2OC)C(=O)NO)c(OC)c1 (configuration not stated) |  | 6.54 | 3.91 |  | 3.43 | 
25 | O=C(NO)[C@H](CCCNS(=O)(=O)c1ccc(F)cc1)NS(=O)(=O)c1ccc(F)cc1 | inactive |  |  | 20 |  | inhibition [4]: 17%
